Values quoted from earlier work in patent publication US20190209710A1, “[…] AND CHEWING GUM […] A […] FOR THE TASTE-BASED DETECTION OF VIRUSES” (Julius-Maximilians-Universitaet Wuerzburg, priority 2016, published 2019).

Legend:
bacterial sialidases = settings: literature: Beau et al., Eur. J. Biochem., 106 (1980) 531-540
viral sialidases = settings: literature: Beau et al., Eur. J. Biochem., 106 (1980) 531-540

CO[C@H]1CC(O)(C(=O)O)O[C@@H]([C@H](O)[C@H](O)CO)[C@@H]1NC(C)=O (some centres unmarked) [4-methoxy-Neu5Ac]
cleavage by bacterial sialidases (bacterial sialidases): not cut | cleavage by viral sialidases (viral sialidases): very quickly
